A word on the Ki: it is the equilibrium dissociation constant of an inhibitor or competing ligand from its target. Usually IC50 stands for the midpoint of a concentration-inhibition curve. For orientation: inhibition means the change of the read-out against control, counted positive when it falls.

The text below walks through data of ChEMBL document CHEMBL5143696, “Discovery of novel benzothiophene derivatives as potent and narrow spectrum inhibitors of DYRK1A and DYRK1B” (Bioorg Med Chem Lett, 2022).

The source made the active and inactive calls. No cut-off for these calls is given here. Some results are limits rather than exact numbers.

Assay [1] deals with T1, Dual specificity tyrosine-phosphorylation-regulated kinase 1A (Homo sapiens, UniProt Q13627). The experiment in a line: Inhibition of human DYRK1A incubated for 90 mins in presence of ATP by Z-LYTE based FRET assay.
The target in assay [2] is T2, Dual specificity tyrosine-phosphorylation-regulated kinase 1B (Homo sapiens, UniProt Q9Y463). The experiment in a line: Inhibition of human DYRK1B incubated for 130 mins in presence of ATP by ADP-Glo kinase assay. In general terms: ADP-Glo first removes unused ATP, then detects ADP through luciferase.
Target sequence in this assay (Q9Y463 whole entry, the tested form may be a part): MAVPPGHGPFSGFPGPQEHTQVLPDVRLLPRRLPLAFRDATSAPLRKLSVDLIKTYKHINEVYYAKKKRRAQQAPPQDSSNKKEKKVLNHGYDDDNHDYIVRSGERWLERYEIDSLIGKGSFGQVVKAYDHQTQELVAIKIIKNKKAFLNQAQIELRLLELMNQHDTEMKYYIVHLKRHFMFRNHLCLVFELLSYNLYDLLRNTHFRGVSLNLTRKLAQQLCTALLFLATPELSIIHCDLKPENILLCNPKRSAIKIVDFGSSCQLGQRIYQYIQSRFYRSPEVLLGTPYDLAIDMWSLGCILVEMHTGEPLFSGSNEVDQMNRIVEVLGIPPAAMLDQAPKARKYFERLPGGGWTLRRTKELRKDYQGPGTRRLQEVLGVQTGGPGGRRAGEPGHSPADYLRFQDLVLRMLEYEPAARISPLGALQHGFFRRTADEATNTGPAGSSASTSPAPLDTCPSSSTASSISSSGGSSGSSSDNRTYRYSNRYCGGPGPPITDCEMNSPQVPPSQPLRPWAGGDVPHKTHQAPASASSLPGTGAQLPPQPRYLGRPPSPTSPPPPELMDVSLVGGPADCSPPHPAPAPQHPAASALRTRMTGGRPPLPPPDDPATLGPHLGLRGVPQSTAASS
The target of assay [3] is T1, Dual specificity tyrosine-phosphorylation-regulated kinase 1A. The experiment in a line: Inhibition of NanoLuc-fused human DYRK1A expressed in HEK293 cells using Nano-Glo as substrate incubated for 2 hrs by NanoBRET assay. Type of assay: cell-based. (In general: Bioluminescence resonance energy transfer reports proximity on the nanometre scale.)
In assay [4] the target is T2, Dual specificity tyrosine-phosphorylation-regulated kinase 1B. The experiment in a line: Inhibition of NanoLuc-fused human DYRK1B expressed in HEK293T cells using Nano-Glo as substrate incubated for 2 hrs by NanoBRET assay. Type of assay: cell-based.
Target sequence in this assay (Q9Y463 whole entry, the tested form may be a part): as above
In assay [5] the target is T3, Serine/threonine-protein kinase PRP4 homolog (Homo sapiens, UniProt Q13523). The experiment in a line: Inhibition of human PRP4 using casein as substrate at 1 uM incubated for 120 mins in presence of [gamma-33P-ATP] by radiometric scintillation assay.
T3 sequence (Q13523 whole entry): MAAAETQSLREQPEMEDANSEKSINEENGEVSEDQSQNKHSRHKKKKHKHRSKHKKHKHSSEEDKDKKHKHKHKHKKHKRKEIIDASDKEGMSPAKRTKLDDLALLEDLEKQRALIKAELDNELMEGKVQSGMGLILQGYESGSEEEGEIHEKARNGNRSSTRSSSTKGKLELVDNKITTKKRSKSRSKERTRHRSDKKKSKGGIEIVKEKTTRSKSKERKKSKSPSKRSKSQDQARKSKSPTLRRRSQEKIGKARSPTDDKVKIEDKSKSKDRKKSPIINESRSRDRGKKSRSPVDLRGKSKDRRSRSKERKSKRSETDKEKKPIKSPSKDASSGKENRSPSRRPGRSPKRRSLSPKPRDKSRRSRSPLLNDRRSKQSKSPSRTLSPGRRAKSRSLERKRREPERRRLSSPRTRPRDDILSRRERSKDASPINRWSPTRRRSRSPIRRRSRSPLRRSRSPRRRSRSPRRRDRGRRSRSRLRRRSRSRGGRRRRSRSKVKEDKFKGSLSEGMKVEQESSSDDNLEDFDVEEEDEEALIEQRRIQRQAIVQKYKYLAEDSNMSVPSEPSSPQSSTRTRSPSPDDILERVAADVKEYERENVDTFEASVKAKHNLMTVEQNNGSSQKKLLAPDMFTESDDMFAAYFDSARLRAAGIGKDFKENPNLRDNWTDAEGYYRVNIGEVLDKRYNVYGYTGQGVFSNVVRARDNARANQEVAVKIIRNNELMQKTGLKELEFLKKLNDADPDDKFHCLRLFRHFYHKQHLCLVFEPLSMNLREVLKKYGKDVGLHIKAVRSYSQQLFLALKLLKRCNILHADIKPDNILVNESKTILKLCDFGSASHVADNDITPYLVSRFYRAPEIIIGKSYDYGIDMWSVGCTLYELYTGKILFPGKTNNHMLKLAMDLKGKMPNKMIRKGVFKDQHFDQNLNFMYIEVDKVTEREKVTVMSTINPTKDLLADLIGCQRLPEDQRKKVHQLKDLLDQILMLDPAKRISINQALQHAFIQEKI
The target in assay [6] is T3, Serine/threonine-protein kinase PRP4 homolog. The experiment in a line: Inhibition of DNA-tagged human PRP4 expressed in Escherichia coli incubated for 1.5 hrs by KINOMEscan assay.
The subject of assay [7] is HeLa. The experiment in a line: Cytotoxicity against human HeLa cells assessed as cell viability at 30 uM incubated for 24 hrs by MTT assay. The assay is classed as functional. The settings on record: read-out: Activity.
The subject of assay [8] is HeLa. As to the kind of experiment: Cytotoxicity against human HeLa cells assessed as reduction in cell viability at 30 uM incubated for 24 hrs in presence of staurosporine by MTT assay. Type of assay: functional, cell-based.
Assay [9] deals with Cyclin-dependent kinase 6 (Homo sapiens) (UniProt Q00534). The experiment in a line: Inhibition of N-terminal GST-tagged full length human recombinant CDK6 expressed in Sf9 insect cells at 1 uM incubated for 60 mins in presence of [gamma33P]ATP by microplate scintillation counter relative to control.
Cyclin-dependent kinase 6 (Homo sapiens), sequence (Q00534 whole entry): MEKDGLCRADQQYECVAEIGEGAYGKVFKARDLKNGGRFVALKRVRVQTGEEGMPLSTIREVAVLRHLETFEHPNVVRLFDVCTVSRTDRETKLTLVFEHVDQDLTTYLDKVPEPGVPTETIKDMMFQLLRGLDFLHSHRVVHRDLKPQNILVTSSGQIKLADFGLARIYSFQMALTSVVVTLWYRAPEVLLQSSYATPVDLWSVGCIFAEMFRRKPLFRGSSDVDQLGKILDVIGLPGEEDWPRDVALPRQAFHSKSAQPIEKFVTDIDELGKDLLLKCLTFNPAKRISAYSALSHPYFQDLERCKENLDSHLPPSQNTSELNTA
Assay [10] addresses Mitogen-activated protein kinase 7 (Homo sapiens) (UniProt Q13164). The experiment in a line: Inhibition of N-terminal recombinant human ERK5 expressed in Sf9 insect cells at 1 uM incubated for 60 mins in presence of [gamma33P]ATP by microplate scintillation counter relative to control.
Assay [11] addresses Cyclin-dependent kinase 4 (Homo sapiens) (UniProt P11802). The experiment in a line: Inhibition of N-terminal GST-tagged full length human recombinant CDK4 expressed in Sf9 insect cells at 1 uM incubated for 60 mins in presence of [gamma33P]ATP by microplate scintillation counter relative to control.
Assay [12] addresses Cyclin-dependent kinase 5 (Homo sapiens) (UniProt Q00535). The experiment in a line: Inhibition of N-terminal GST-tagged full length human recombinant CDK5 expressed in Sf9 insect cells at 1 uM incubated for 60 mins in presence of [gamma33P]ATP by microplate scintillation counter relative to control.
The target of assay [13] is Cyclin-dependent kinase 8 (Homo sapiens) (UniProt P49336). As to the kind of experiment: Inhibition of N-terminal GST-tagged full length human recombinant CDK8 expressed in Sf9 insect cells at 1 uM incubated for 60 mins in presence of [gamma33P]ATP by microplate scintillation counter relative to control.
Cyclin-dependent kinase 8 (Homo sapiens), sequence (P49336 whole entry): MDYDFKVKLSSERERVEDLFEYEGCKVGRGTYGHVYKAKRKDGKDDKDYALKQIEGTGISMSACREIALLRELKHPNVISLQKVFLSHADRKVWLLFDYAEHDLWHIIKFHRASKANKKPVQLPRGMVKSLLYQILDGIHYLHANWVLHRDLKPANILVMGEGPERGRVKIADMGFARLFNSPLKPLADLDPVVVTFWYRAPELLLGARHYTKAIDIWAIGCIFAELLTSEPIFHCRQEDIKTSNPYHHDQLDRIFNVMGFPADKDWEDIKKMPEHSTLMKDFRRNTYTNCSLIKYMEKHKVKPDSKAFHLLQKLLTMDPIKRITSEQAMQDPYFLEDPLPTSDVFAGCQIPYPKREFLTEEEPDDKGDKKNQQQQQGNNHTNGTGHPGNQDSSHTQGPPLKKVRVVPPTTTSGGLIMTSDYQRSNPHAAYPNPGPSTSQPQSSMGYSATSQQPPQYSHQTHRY
Assay [14] in a line: Inhibition of His6-tagged full length human recombinant CDK11 expressed in Sf9 insect cells at 1 uM incubated for 60 mins in presence of [gamma33P]ATP by microplate scintillation counter relative to control.
The target of assay [15] is Cyclin-dependent kinase 16 (Homo sapiens) (UniProt Q00536). As to the kind of experiment: Inhibition of His6-tagged full length human recombinant CDK16 expressed in Sf9 insect cells at 1 uM incubated for 60 mins in presence of [gamma33P]ATP by microplate scintillation counter relative to control.
Cyclin-dependent kinase 16 (Homo sapiens), sequence (Q00536 whole entry): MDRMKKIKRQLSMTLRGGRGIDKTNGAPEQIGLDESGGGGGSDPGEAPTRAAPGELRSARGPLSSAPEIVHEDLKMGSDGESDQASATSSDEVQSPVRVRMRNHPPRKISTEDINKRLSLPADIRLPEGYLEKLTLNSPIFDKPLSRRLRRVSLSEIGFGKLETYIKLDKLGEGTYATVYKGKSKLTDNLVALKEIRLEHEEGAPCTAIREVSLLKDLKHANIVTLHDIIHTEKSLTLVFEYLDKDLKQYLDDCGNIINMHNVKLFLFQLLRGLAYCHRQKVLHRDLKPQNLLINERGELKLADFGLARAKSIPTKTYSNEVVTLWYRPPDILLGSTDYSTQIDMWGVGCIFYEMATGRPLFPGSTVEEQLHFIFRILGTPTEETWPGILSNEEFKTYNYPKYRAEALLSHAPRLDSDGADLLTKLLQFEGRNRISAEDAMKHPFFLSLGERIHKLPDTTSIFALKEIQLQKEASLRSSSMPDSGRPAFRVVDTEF
Assay [16] addresses Serine/threonine-protein kinase pim-3 (Homo sapiens) (UniProt Q86V86). As to the kind of experiment: Inhibition of His6-tagged full length human recombinant PIM3 expressed in Sf9 insect cells at 1 uM incubated for 60 mins in presence of [gamma33P]ATP by microplate scintillation counter relative to control.
Assay [17] has as its target Serine/threonine-protein kinase pim-1 (Homo sapiens) (UniProt P11309). The experiment in a line: Inhibition of His6-tagged full length human recombinant PIM1 expressed in Sf9 insect cells at 1 uM incubated for 60 mins in presence of [gamma33P]ATP by microplate scintillation counter relative to control.
The target in assay [18] is T4, Serine/threonine-protein kinase TAO3 (Homo sapiens) (UniProt Q9H2K8).
T4 sequence (whole entry): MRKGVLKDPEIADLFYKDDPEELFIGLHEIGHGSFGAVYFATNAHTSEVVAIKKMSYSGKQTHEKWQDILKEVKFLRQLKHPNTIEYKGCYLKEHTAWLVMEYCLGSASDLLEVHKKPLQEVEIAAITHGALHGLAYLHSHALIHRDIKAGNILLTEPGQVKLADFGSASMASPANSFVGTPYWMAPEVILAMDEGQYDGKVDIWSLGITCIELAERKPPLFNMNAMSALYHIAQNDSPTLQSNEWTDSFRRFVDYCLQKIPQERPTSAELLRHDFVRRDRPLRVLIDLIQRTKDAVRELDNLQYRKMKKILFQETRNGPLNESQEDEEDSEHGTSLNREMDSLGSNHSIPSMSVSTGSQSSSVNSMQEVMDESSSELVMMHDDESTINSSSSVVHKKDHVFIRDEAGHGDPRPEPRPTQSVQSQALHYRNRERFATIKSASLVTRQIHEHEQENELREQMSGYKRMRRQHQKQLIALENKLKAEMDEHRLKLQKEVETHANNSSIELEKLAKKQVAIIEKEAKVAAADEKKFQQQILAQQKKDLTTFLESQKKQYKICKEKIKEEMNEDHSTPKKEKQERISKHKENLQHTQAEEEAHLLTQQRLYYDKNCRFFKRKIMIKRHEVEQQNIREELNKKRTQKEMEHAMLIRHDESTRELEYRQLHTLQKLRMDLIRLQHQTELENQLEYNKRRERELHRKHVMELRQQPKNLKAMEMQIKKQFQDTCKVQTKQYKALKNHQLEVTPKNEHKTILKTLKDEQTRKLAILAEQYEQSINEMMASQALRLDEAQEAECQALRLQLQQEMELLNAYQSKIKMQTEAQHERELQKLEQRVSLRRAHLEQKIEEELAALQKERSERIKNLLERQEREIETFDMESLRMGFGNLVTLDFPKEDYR
As to the kind of experiment: Inhibition of full length human recombinant TAOK3 expressed in baculovirus infected Sf9 cells at 1 uM incubated for 60 mins in presence of [gamma33P]ATP by microplate scintillation counter relative to control.

Assay [19] deals with T5, Inhibitor of nuclear factor kappa-B kinase subunit alpha (Homo sapiens) (UniProt O15111).
T5 sequence (whole entry): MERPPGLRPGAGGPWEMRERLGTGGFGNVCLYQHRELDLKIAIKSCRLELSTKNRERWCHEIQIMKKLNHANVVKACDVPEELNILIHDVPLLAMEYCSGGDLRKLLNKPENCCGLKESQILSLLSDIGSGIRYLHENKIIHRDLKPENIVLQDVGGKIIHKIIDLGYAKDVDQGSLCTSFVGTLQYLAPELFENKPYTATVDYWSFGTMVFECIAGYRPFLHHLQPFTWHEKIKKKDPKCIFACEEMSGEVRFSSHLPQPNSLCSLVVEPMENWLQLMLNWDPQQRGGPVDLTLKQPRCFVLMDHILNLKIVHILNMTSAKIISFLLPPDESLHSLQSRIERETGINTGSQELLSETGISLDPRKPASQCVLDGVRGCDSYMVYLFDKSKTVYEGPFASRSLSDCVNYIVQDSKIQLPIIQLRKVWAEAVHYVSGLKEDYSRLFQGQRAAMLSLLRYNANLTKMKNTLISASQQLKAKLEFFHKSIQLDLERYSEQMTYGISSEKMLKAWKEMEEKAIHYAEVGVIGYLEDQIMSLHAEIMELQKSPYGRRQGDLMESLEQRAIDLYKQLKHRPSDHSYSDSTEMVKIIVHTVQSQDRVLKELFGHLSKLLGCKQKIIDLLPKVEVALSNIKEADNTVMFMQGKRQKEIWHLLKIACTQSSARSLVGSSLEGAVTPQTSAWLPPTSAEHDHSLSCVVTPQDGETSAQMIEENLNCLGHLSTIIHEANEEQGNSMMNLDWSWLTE
The experiment in a line: Inhibition of full length human recombinant IKKalpha expressed in baculovirus infected Sf9 cells at 1 uM incubated for 60 mins in presence of [gamma33P]ATP by microplate scintillation counter relative to control.

For assay [20], the target named is T1, Dual specificity tyrosine-phosphorylation-regulated kinase 1A. As to the kind of experiment: Inhibition of human DYRK1A expressed in Sf9 insect cells at 1 uM incubated for 60 mins in presence of [gamma33P]ATP by microplate scintillation counter relative to control.
Assay [21] addresses T2, Dual specificity tyrosine-phosphorylation-regulated kinase 1B. As to the kind of experiment: Inhibition of human DYRK1B expressed in Sf9 insect cells at 1 uM incubated for 60 mins in presence of [gamma33P]ATP by microplate scintillation counter relative to control.
Target sequence in this assay (Q9Y463 whole entry, looked up, the tested form may be a part): as the sequence (Q9Y463 whole entry, the tested form may be a part) above

Serine/threonine-protein kinase pim-1 (Homo sapiens), sequence (P11309 whole entry, looked up): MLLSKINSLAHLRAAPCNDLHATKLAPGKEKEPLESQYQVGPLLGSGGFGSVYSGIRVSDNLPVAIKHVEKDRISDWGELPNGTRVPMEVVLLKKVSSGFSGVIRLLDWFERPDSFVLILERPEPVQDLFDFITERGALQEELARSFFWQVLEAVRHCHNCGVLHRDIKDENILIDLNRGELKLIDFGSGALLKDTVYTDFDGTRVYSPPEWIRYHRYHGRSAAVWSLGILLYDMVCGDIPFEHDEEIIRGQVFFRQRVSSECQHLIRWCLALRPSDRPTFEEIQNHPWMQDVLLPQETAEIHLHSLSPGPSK
Cyclin-dependent kinase 4 (Homo sapiens), sequence (P11802 whole entry): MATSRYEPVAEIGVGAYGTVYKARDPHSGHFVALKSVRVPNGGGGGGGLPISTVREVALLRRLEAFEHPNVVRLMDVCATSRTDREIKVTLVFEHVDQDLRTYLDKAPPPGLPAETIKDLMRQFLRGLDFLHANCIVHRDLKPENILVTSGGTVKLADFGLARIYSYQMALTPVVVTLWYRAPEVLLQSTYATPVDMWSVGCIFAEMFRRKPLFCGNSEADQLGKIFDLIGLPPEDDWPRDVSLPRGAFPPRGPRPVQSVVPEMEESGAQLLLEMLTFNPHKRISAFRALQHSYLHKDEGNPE
Cyclin-dependent kinase 5 (Homo sapiens), sequence (Q00535 whole entry, looked up): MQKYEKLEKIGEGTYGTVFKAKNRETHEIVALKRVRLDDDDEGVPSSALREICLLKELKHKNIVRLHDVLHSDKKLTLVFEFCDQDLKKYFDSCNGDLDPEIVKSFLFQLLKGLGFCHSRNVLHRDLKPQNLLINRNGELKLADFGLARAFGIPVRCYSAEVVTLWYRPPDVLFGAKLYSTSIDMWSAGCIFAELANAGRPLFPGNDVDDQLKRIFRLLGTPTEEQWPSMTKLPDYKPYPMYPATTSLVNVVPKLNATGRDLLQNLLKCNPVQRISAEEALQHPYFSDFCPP

As to `NC(=O)c1cc2c(-c3ccc(C(=O)NCc4ccccc4N)s3)c(Cl)ccc2s1`, the inhibitory constant (Ki) amounted to 36.2 nM in assay [1] and 577 nM in [2]. For the same compound, the concentration for half-maximal inhibition (IC50) in [3] is 1700 nM; in [4] it was 700 nM.

As for `NC(=O)c1cc2c(-c3ccc(C(=O)NCCn4cc(CO)nn4)s3)cccc2s1`, the Ki in [1] is 118 nM; in assay [2], 448 nM.

Regarding `NC(=O)c1cc2c(-c3ccc(C(=O)NCc4ccccc4O)s3)c(Cl)ccc2s1`, the Ki in assay [1] was 85.3 nM; in [2], 1180 nM.

As for `NC(=O)c1cc2c(-c3ccc(C(=O)NCc4ccccc4O)s3)cccc2s1`, the inhibition constant Ki in [1] worked out at 9.9 nM; in [2] it was 65.3 nM. In addition, the IC50 was determined as 4400 nM in assay [3] and 3400 nM in assay [4].

For the compound `NC(=O)c1cc2c(-c3cc(N)c(C(=O)NC4CC4)s3)cccc2s1`, the Ki in [1] was determined as 89.5 nM; in assay [2], 814 nM.

As to `NC(=O)c1cc2c(-c3ccc(C(=O)NCc4ccccc4N)s3)cccc2s1`, the results for the inhibitory constant (Ki) in [1], in assay [2] and in assay [6] were 67.8 nM, 238 nM and 1300 nM, respectively. The values for the IC50 in assay [3] and in [4] were 1100 nM and 800 nM, respectively. Moreover, the inhibition in assay [5] turned out to be 38%. The viability at 30 µM with HeLa [7] is more than 75%. Besides, the result in the assay with HeLa [8] was Active.

As to `NC(=O)c1cc2c(-c3ccc(C(=O)NCc4cccc(O)c4)s3)cccc2s1`, the inhibition constant Ki is 73 nM in assay [1] and 370 nM in assay [2].

As for `NC(=O)c1cc2c(-c3ccc(C(=O)NCc4cccc(N)c4)s3)ccc(F)c2s1`, the Ki was 491 nM in assay [1] and 2310 nM in [2].

As to `NC(=O)c1cc2c(-c3ccc(C(=O)NCC4CC4)s3)cccc2s1`, the figures for the Ki in assay [1] and in assay [2] were 95.1 nM and 980 nM, respectively.

As to `NC(=O)c1cc2c(-c3ccc(C(=O)NCc4cccc(N)c4)s3)c(Cl)ccc2s1`, the Ki in assay [1] was 93.4 nM; in assay [2] it was 1450 nM.

Take `NC(=O)c1cc2c(-c3ccc(C(=O)NCc4cccc(Cl)c4)s3)cccc2s1`: the Ki was found to be 359 nM in [1] and 4400 nM in assay [2].

In the case of `NC(=O)c1cc2c(-c3ccc(C(=O)NCc4ccccc4)s3)cccc2s1`, the Ki is 56.9 nM in assay [1] and 278 nM in assay [2]. Besides, the IC50 in assay [3] came to 4600 nM; in assay [4] it was 4300 nM.

`NC(=O)c1cc2c(-c3ccc(C(=O)NC4CCOCC4)s3)cccc2s1`: the inhibition constant (Ki) in assay [1] was 178 nM; in [2], 1100 nM.

Take `NC(=O)c1cc2c(-c3ccc(C(=O)NC4CC4)s3)cccc2s1`: the Ki is 160 nM in assay [1] and 670 nM in assay [2].

In the case of `NC(=O)c1cc2c(-c3ccc(C(=O)NCc4ccnc(Cl)c4)s3)cccc2s1`, the Ki is 85.9 nM in [1] and 642 nM in assay [2]. In addition, the inhibition in assay [9], in assay [10], in assay [11], in assay [12], in [13] and in assay [14] was more than 35% in each case. Further, the inhibition in assay [15], in [16], in assay [17], in assay [18], in [19] and in assay [20] was more than 35% each time. In addition, in [21], the inhibition was more than 35%. In addition, the IC50 in [3] was 2000 nM; in assay [4] it was 1800 nM.

For the compound `NC(=O)c1cc2c(-c3ccc(C(=O)NCc4cccc(N)c4)s3)cccc2s1`, the Ki is 119 nM in assay [1] and 660 nM in assay [2].

Consider `NC(=O)c1cc2c(-c3ccc(C(=O)NCc4cccc(O)c4)s3)c(Cl)ccc2s1`, for which the results for the Ki in assay [1] and in assay [2] were 105 nM and 1130 nM, respectively.

Turning to `NC(=O)c1cc2c(-c3ccc(C(=O)N[C@H](CO)Cc4ccccc4)s3)cccc2s1`, the Ki came to 101 nM in assay [1] and 730 nM in assay [2].

Turning to `NC(=O)c1cc2c(-c3ccc(C(=O)NCc4ccc(N)cc4)s3)cccc2s1`, the Ki in assay [1] came out at 26.8 nM; in assay [2], 187 nM. The 50% inhibitory concentration (IC50) in [3] came to 2700 nM; in [4], 3600 nM.
